Experimental findings from patent publication US8067454B2, “Thio-substituted Anthra [1, 2-d] imidazole- 6, 11-dione derivatives, preparation method and application thereof” (National Defense Medical Center, priority 2010, dated 2011) are described below.

The subject of one series is GBM8401. The series can be described thus: MTT assay, GBM8401 tumor cell. To be noted: concentration 10 μM, tumor cell.
Series [1] has as its system telomerase (total cell lysates of lung cancer cell line H1299). The series can be described thus: Telomeric Repeat Amplification Protocol (TRAP) assay, screen of telomerase inhibitors. The series is classed as biochemical, human. To be noted: 10 μM. The protocol: Telomeric Repeat Amplification Protocol (TRAP) Assay:
Telomerase activity was detected by a modified version of the general TRAP protocol. Telomerase products were resolved by 10% polyacrylamide gel electrophoresis and visualized by staining with SYBER Green. As a source of telomerase, the total cell lysates derived from lung cancer cell line H1299 cells were used. Protein concentration of the lysates was assayed using Bio-Rad protein assay kit using BSA standards.
In the TRAP assay, if a compound can stabilize the G-quadruplex structure such that telomerase can not act on telomere, then the effect of inhibiting the telomerase can be achieved. In the FIG. 2A to FIG. 2C, DMSO treatment represents as the positive control group (P); while a negative control group (N) used 5 μl of 0.1 mg/ml RNase A (CLONTECH) in the assay. It could be observed that a number of telomeric fragments were detected in the positive control group (P), while none was detected in the negative control group (N). 10 μM was selected as the concentration used to screen compounds.

In a further series the test system is GBM8901. The series can be described thus: MTT assay, GBM8901 tumor cell. To be noted: concentration 10 μM, tumor cell. On the technique in general: Tetrazolium assays rely on reduction of a dye to a coloured formazan, in cell work by metabolically active cells.
The subject of series [2] is SVG p12, GBM8401 and GBM8901. Kind of series: MTT assay, normal cell versus tumor cells (categories 39-3 to 39-7). The conditions noted are these: tumor cell survival rate less than 80%; for category 39-4: survival rate higher than 80% for normal cell SVG p12 and only inhibits growth of tumor cell GBM8401: FIG. 5B.
The next series relates to SVG p12. Kind of series: MTT assay, SVG p12 normal cell. The conditions noted are these: for Cell survival rate (%) SVG p12: concentration 10 μM, normal cell.

Turning to `C=CCSc1nc2ccc3c(c2[nH]1)C(=O)c1ccccc1C3=O` [f1-19, 2-(allylthio)-1H-anthra[1,2-d]imidazole-6,11-dione], the “Cell survival rate (%) GBM8401” value in the series on GBM8401 is 42 ± 18%. Besides, the “inhibition effect against telomerase” value in series [1] is “exhibited inhibition effect against telomerase”. Further, the “Cell survival rate (%) GBM8901” value in the series with GBM8901 stood at 50 ± 6%. Further, in series [2] (FIG. 5A), the “category 39-3: survival rate higher than 80% for normal cell SVG p12 and inhibits growth of both tumor cells GBM8401 and GBM8901” value was “in this category”. Besides, the “Cell survival rate (%) SVG p12” value in the series with SVG p12 came to 89 ± 5%. The “without cell toxicity for normal cell SVGP p12” value with SVG p12 (survival rate higher than 80%) is reported as “without cell toxicity for normal cell SVGP p12”.
With `O=C1c2ccccc2C(=O)c2c1ccc1nc(SCC(=O)N3CCCC3)[nH]c21` [f1-21, 2-(2-oxo-2-(pyrrolidin-1-yl)ethylthio)-1H-anthra[1,2-d]imidazole-6,11-dione], in the series on GBM8401, the “Cell survival rate (%) GBM8401” value amounted to 30 ± 10%. The “inhibition effect against telomerase” value in series [1] is reported as “exhibited inhibition effect against telomerase”. In the series with GBM8901, the “Cell survival rate (%) GBM8901” value was found to be 38 ± 5%. For the same compound, in the series with SVG p12, the “Cell survival rate (%) SVG p12” value is given as 63 ± 1%.
For `O=C1c2ccccc2C(=O)c2c1ccc1nc(SCCCCCBr)[nH]c21` [f1-9, 2-(5-bromopentylthio)-1H-anthra[1,2-d]imidazole-6,11-dione], the “Cell survival rate (%) GBM8401” value with GBM8401 came to 62 ± 19%. Further, in series [1], the “inhibition effect against telomerase” value is given as “exhibited inhibition effect against telomerase”. In addition, the “category 39-5: survival rate higher than 80% for normal cell SVG p12 and only inhibits growth of tumor cell GBM8901” value in series [2] (FIG. 5C) was “in this category”.
In the case of `O=C1c2ccccc2C(=O)c2c1ccc1nc(SCCN3CCCCC3)[nH]c21` [f1-12, 2-(2-(Piperidin-1-yl)ethylthio)-1H-anthra[1,2-d]imidazole-6,11-dione], the “Cell survival rate (%) GBM8401” value in the series on GBM8401 was determined as 6 ± 13%. In addition, the “inhibition effect against telomerase” value in series [1] was “exhibited inhibition effect against telomerase”. In addition, the “Cell survival rate (%) GBM8901” value in the series with GBM8901 is 42 ± 8%. The “Cell survival rate (%) SVG p12” value with SVG p12 amounted to 22 ± 8%.
As for `CCN(CC)C(=O)CSc1nc2ccc3c(c2[nH]1)C(=O)c1ccccc1C3=O` [f1-18, 2-(6,11-dioxo-6,11-dihydro-1H-anthra[1,2-d]imidazol-2-ylthio)-N,N-diethylacetamide], the “Cell survival rate (%) GBM8401” value in the series on GBM8401 is given as 23 ± 13%. In addition, the “inhibition effect against telomerase” value in series [1] is given as “exhibited inhibition effect against telomerase”. In addition, in the series with GBM8901, the “Cell survival rate (%) GBM8901” value is given as 42 ± 3%. Moreover, in the series with SVG p12, the “Cell survival rate (%) SVG p12” value worked out at 65 ± 3%.
For the compound `Cc1cc(C(=O)Sc2nc3ccc4c(c3[nH]2)C(=O)c2ccccc2C4=O)c(C)o1` [f2-6, S-6,11-dioxo-6,11-dihydro-1H-anthra[1,2-d]imidazol-2-yl 2,5-dimethylfuran-3-carbothioate], the “inhibition effect against telomerase” value in series [1] is “exhibited inhibition effect against telomerase”. For the same compound, in the series on GBM8901, the “Cell survival rate (%) GBM8901” value was determined as 38 ± 7%. Moreover, in series [2], the “category 39-4: survival rate higher than 80% for normal cell SVG p12 and only inhibits growth of tumor cell GBM8401” value is “in this category”.
For the compound `O=C(Sc1nc2ccc3c(c2[nH]1)C(=O)c1ccccc1C3=O)c1ccccc1[N+](=O)[O-]` [f2-1, S-6,11-dioxo-6,11-dihydro-1H-anthra[1,2-d]imidazol-2-yl 2-nitrobenzothioate], the “inhibition effect against telomerase” value in series [1] was “exhibited inhibition effect against telomerase”. Moreover, the “Cell survival rate (%) GBM8901” value in the series on GBM8901 is 58 ± 3%. Also, in series [2], the “category 39-4: survival rate higher than 80% for normal cell SVG p12 and only inhibits growth of tumor cell GBM8401” value is reported as “in this category”.
